System: H7P44 and H9P46 embryonic stem cells
Experiment: Definitive endoderm on […]: role of Wnt ligands (FACS CXCR4, real-time PCR)
Format: cell-based, human
Description: In some of the cultures 20 ng/ml Wnt-3a (Catalog#1324-WN-002, R&D Systems, MN), 20 ng/ml Wnt-5a (Catalog#654-WN-010, R&D Systems, MN), 25 ng/ml Wnt-7a (Catalog#3008-WN-025, R&D Systems, MN), or 25 ng/ml Wnt-5b (Catalog#3006-WN-025, R&D Systems, MN) was added throughout the five day treatment. FIG. 24 depicts phase contrast images of H9P46 definitive endoderm culture in the presence of high concentration of (a) AA or (b) AA+20 ng/ml Wnt-3a. FIG. 25 depicts the expression of CXCR4 by FACS at day 5 for H7P44, and H9P46 lines cultured on […]™ (1:30 dilution) and exposed to the DE protocol+Wnt-3a (FIG. 25, panels b and d) and −Wnt-3a (FIG. 25, panels a and c).

Wnt-3a
expression of CXCR4 (CD184) by FACS (20 ng/ml Wnt-3a in DE cultures, day 5, H7P44 and H9P46): robust expression
expression of definitive endoderm markers (real-time PCR) (low serum+AA+/-Wnt ligands, H7 and H9, five days): significant up regulation
